Results as given in patent publication US11464802B2, “3-substituted piperidine compounds for Cbl-b inhibition, and use thereof” (Nurix Therapeutics, Inc., priority 2019, dated 2022).

Legend:
[1] = tested on: primary human total T-cells; test: Primary human total T-cell activation: CD25 surface staining, Biological Example 9; format: cell-based; conditions: 48 hours, fold change over baseline; for fold induction at 1 µM: inhibitor 1 μM
[2] = molecular target: T1, Cbl-b (Homo sapiens (Human), UniProt Q13191); test: Cbl-b displacement assay (Cbl-b inhibition assay), Biological Example 12; format: binding; conditions: 0.125 nM Cbl-b final concentration (Low); Table 12-1; read-out: Cbl-b IC50 (Low)
T1 sequence (Q13191 36-427): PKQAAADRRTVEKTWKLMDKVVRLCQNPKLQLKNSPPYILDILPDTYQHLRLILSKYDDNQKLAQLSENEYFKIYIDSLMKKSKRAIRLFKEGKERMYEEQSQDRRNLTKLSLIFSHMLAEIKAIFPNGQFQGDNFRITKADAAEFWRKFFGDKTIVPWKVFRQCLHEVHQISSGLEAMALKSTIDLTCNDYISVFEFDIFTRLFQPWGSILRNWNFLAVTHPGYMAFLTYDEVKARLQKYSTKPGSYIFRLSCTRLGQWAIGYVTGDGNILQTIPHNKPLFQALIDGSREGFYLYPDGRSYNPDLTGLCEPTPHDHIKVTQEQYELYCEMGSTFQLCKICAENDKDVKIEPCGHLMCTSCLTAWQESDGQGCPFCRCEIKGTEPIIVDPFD
Procedure, shortened: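 Biotinylated Avitag-Cbl-b (residues 36-427) at 0.5 nM ("High") or 0.125 nM ("Low") final was preincubated 1 h at room temperature with compound (1% DMSO) in 20 mM HEPES pH 7.5, 150 mM NaCl, 0.01% Triton X-100, 0.01% BSA, 0.5 mM TCEP. Then 150 nM BODIPY FL inhibitor probe (~EC40) plus 2 nM streptavidin-terbium, 1 h; TR-FRET 520/620 read, IC50 derived.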

[3] = molecular target: T1, Cbl-b; test: Cbl-b displacement assay (Cbl-b inhibition assay), TR-FRET probe displacement, Biological Example 1; format: binding; conditions: 0.5 nM Cbl-b final concentration (High); read-out: Cbl-b activity IC50 (High)
Procedure, shortened: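 TR-FRET displacement of a BODIPY FL-labelled inhibitor probe (150 nM, ~EC40) from biotin-Avitag truncated Cbl-b, detected via 2 nM streptavidin-Tb, 1 h, room temperature. Compound in 1% DMSO pre-incubated 1 h with Cbl-b at 0.5 nM (High) or 0.125 nM (Low) in 20 mM HEPES pH 7.5, 150 mM NaCl, 0.5 mM TCEP.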

[4] = tested on: primary human total T-cells; test: Primary human total T-cell activation: IL-2 secretion, Biological Example 9; format: cell-based; conditions: 48 hours, fold change over baseline; for fold induction at 1 µM: inhibitor 1 μM
[5] = tested on: primary human total T-cells; test: Primary human total T-cell activation: IL-2 secretion, Biological Example 2; format: cell-based; conditions: 48 hours, fold change over baseline; for fold induction at 1 µM: inhibitor 1 μM
[6] = tested on: primary human total T-cells; test: Primary human total T-cell activation: CD25 surface staining, Biological Example 2; format: cell-based; conditions: 48 hours, fold change over baseline; for fold induction at 1 µM: inhibitor 1 μM
[7] = tested on: primary human total T-cells; test: Primary human total T-cell activation: CD25 surface staining, Biological Example 13; format: cell-based; conditions: 48 hours, fold change over baseline; for fold induction at 1 µM: inhibitor 1 μM
[8] = tested on: primary human total T-cells; test: Primary human total T-cell activation: IL-2 secretion, Biological Example 13; format: cell-based; conditions: 48 hours, fold change over baseline; for fold induction at 1 µM: inhibitor 1 μM
[9] = anti-CD3/anti-CD28 co-stimulation, inhibitor 0.3 μM, Table 9-1
[10] = anti-CD3 alone, inhibitor 3 μM, Table 9-1
[11] = anti-CD3/anti-CD28 co-stimulation, inhibitor 0.3 μM
[12] = anti-CD3/anti-CD28 co-stimulation, inhibitor 0.3 μM, Table 13-1
[13] = anti-CD3 alone, inhibitor 3 μM, Table 13-1

Q: For `C[C@@H]1CN(Cc2cc3c(c(C(F)(F)F)c2)CN(c2cccc(C4(Cc5nncn5C)COC4)c2)C3=O)CCC1(F)F` [Compound 8, (R)-6-((4,4-difluoro-3-methylpiperidin-1-yl)methyl)-2-(3-(3-((4-methyl-4H-1,2,4-triazol-3-yl)methyl)oxetan-3-yl)phenyl)-4-(trifluoromethyl)isoindolin-1-one], which fold induction at 0.3 µM [1, 9] is on record?
A: > 1.39

Q: What about the fold induction at 1 µM ([1]; anti-CD3/anti-CD28 co-stimulation, Table 9-1, read-out: CD25 staining CD3/CD28 1 μM) of the same compound?
A: > 1.39

Q: What about the fold induction at 1 µM ([1]; anti-CD3 alone, Table 9-1, read-out: CD25 staining CD3 1 μM) of the same compound?
A: > 1.14

Q: And the fold induction at 3 µM [1, 10]?
A: > 1.14

Q: What about the IC50 [2] of the same compound?
A: < 1 nM

Q: What about the IC50 [3] of the same compound?
A: 5.1 to 100 nM

Q: And the fold induction at 0.3 µM [4, 9]?
A: > 15

Q: What about the fold induction at 1 µM ([4]; anti-CD3/anti-CD28 co-stimulation, Table 9-1, read-out: IL-2 secretion CD3/CD28 1 μM) of the same compound?
A: > 15

Q: What about the fold induction at 1 µM ([4]; anti-CD3 alone, Table 9-1, read-out: IL-2 secretion CD3 1 μM) of the same compound?
A: > 0.66

Q: And the fold induction at 3 µM [4, 10]?
A: > 0.66

Q: What about the fold induction at 0.3 µM [5, 11] of the same compound?
A: > 15

Q: What about the fold induction at 1 µM ([5]; anti-CD3/anti-CD28 co-stimulation, read-out: IL-2 secretion CD3/CD28 1 μM) of the same compound?
A: > 15

Q: What about the fold induction at 1 µM ([5]; anti-CD3 alone, read-out: IL-2 secretion CD3 1 μM) of the same compound?
A: 0.34 to 0.66

Q: What about the fold induction at 3 µM ([5]; anti-CD3 alone, inhibitor 3 μM) of the same compound?
A: 0.34 to 0.66

Q: And the fold induction at 0.3 µM [6, 11]?
A: 1.25 to 1.39

Q: What about the fold induction at 1 µM ([6]; anti-CD3/anti-CD28 co-stimulation, read-out: CD25 staining CD3/CD28 1 μM) of the same compound?
A: 1.25 to 1.39

Q: And the fold induction at 1 µM ([6]; anti-CD3 alone, read-out: CD25 staining CD3 1 μM)?
A: > 1.14

Q: And the fold induction at 3 µM ([6]; anti-CD3 alone, inhibitor 3 μM)?
A: > 1.14

Q: What about the fold induction at 0.3 µM [7, 12] of the same compound?
A: > 1.39

Q: And the fold induction at 1 µM ([7]; anti-CD3/anti-CD28 co-stimulation, Table 13-1, read-out: CD25 staining CD3/CD28 1 μM)?
A: > 1.39

Q: What about the fold induction at 1 µM ([7]; anti-CD3 alone, Table 13-1, read-out: CD25 staining CD3 1 μM) of the same compound?
A: > 1.14

Q: And the fold induction at 3 µM [7, 13]?
A: > 1.14

Q: And the fold induction at 0.3 µM [8, 12]?
A: > 15

Q: And the fold induction at 1 µM ([8]; anti-CD3/anti-CD28 co-stimulation, Table 13-1, read-out: IL-2 secretion CD3/CD28 1 μM)?
A: > 15

Q: And the fold induction at 1 µM ([8]; anti-CD3 alone, Table 13-1, read-out: IL-2 secretion CD3 1 μM)?
A: > 0.66

Q: And the fold induction at 3 µM [8, 13]?
A: > 0.66
